Experimental data published in EPA's ToxValDB 9.5 (doi:10.2903/j.efsa.2018.5307).

Experiments:
Typhlodromus pyri = experiment: LR50; higher = less toxic; settings: acute; mortality
Tagia sp. = settings: chronic/long-term; reproduction
Oryctolagus sp. = settings: developmental; development
Daphnia magna = settings: chronic/long-term; duration: 23 days; reproduction
Apis mellifera = settings: acute, mortality
Cyprinus carpio = settings: acute; duration: 96 hours; mortality
Pimephales promelas = settings: chronic/long-term; development

## CCOP(=O)=O.CCOP(=O)=O.CCOP(=O)=O.[Al+3] [Fosetyl aluminum]
Typhlodromus pyri
  LR50: > 8400 g/ha
Tagia sp.
  NOEC: 164 mg/kg
Oryctolagus sp.
  NOAEL: 100 mg/kg-day
Daphnia magna
  NOEC: 10.1 mg/L
Colinus virginianus; acute, oral, mortality
  LD50: > 2000 mg/kg-day
Colinus virginianus; reproduction developmental
  NOEL: 216 mg/kg-day
Apis mellifera; dermal
  LD50: > 100 µg/piece
Apis mellifera; oral, unspecified
  LD50: > 140 µg/piece
Rattus norvegicus; acute, oral, mortality
  LD50: > 7080 mg/kg-day
Rattus norvegicus; reproduction developmental, body weight
  NOAEL: 482 mg/kg-day
Cyprinus carpio
  LC50: > 100 µg/mL
Pimephales promelas
  NOEC: 0.213 mg/L
